Measurements taken from publication PMC11822212, “High-throughput screening identifies Aurora kinase B as a critical therapeutic target for Merkel cell carcinoma” (Nature Communications, 2025).

Tests used:
Assay type in all cases: cell-based, human
MKL-2 cells (VP-MCC) = test: qHTS cell viability (CellTiter-Glo, 72 h; primary and follow-up small molecule screen); conditions: for Percent viability: MKL2, 72h
UISO cells (VN-MCC) = test: as above; conditions: UISO; for Percent viability: 72h
GDSC cancer cell lines = test: Genomics of Drug Sensitivity in Cancer (GDSC) IC50 comparison across cancer cell lines; conditions: own IC50 estimates compared with public IC50 data
Protocol: Palo Alto, CA, USA) for these compounds from our small molecule screen. Following the graphing format in the GDSC database, compounds were ranked by IC50 and plotted in Rstudio using ggplot2, ggrepel, and scales packages. page 9: Supplementary Fig. S6. Au rora kinase inhibi tors mor e potentl y reduc e viability in VP-MCC than VN-MCC. […] Cell viability was measured by CellTiter- Glo at 72 h and by manual cell counts at 144 h. […] Consistent across n = 3 replicates . B) IC50 values (molar) for each aurora kinase inhibitor in each MCC cell line. […] IC50 values from GDSC (Gray-scale and green) were combined with IC50 values determined in our study (purple) and then ranked. n = number of experimental replicates for each cell line.

MCC13 cells (VN-MCC) = test: qHTS cell viability (CellTiter-Glo, 72 h; primary and follow-up small molecule screen); conditions: for Percent viability: MCC13, 72h
[1] = test system: VP-MCC cell lines (WAGA, MKL-1, MKL-2); test: qHTS cell viability, VP-MCC cell lines as a group (mean AUC, VP.MCC.avg); conditions: re-tested in triplicate, follow-up screen
WAGA cells (VP-MCC) = test: qHTS cell viability (CellTiter-Glo, 72 h; primary and follow-up small molecule screen); conditions: WAGA; for Percent viability: 72h
MKL-1 cells (VP-MCC) = test: as above; conditions: for Percent viability: MKL1, 72h
MCC26 cells (VN-MCC) = test: as above; conditions: for Percent viability: MCC26, 72h

`Cc1cc(Nc2cc(N3CCN(C)CC3)nc(Sc3ccc(NC(=O)C4CC4)cc3)n2)[nH]n1` [Tozasertib, reference compound] gave a Percent viability (MKL-2 cells (VP-MCC); Log (M) -5.33646) of 29.1%, a Percent viability (MKL-2 cells (VP-MCC); Log (M) -5.81358) of 82.7% and a Percent viability (MKL-2 cells (VP-MCC); Log (M) -6.2907) of 74.7%. It also gave a Percent viability (MKL-2 cells (VP-MCC); Log (M) -6.76782) of 62.9%, a Percent viability (MKL-2 cells (VP-MCC); Log (M) -7.24494) of 51.8% and a Percent viability (MKL-2 cells (VP-MCC); Log (M) -7.72207) of 51.5%. The Percent viability (MKL-2 cells (VP-MCC); Log (M) -8.19919) was 79.6%, the Percent viability (MKL-2 cells (VP-MCC); Log (M) -8.67631) was 111.3% and the Percent viability (MKL-2 cells (VP-MCC); Log (M) -9.15343) was 116.9%. For the same compound, the Percent viability (MKL-2 cells (VP-MCC); Log (M) -9.63055) was 110.0%, the Percent viability (MKL-2 cells (VP-MCC); Log (M) -10.1077) was 101.6% and the “Area under the dose-response curve (AUC) MKL-2 Replicate 1” value (MKL-2 cells (VP-MCC); follow-up screen, MKL-2, replicate 1) was 388.8. For the same compound, the “Area under the dose-response curve (AUC) MKL-2 Replicate 2” value (MKL-2 cells (VP-MCC); follow-up screen, MKL-2, replicate 2) was 384.9, the “Area under the dose-response curve (AUC) MKL-2 Replicate 3” value (MKL-2 cells (VP-MCC); follow-up screen, MKL-2, replicate 3) was 409.6 and the Percent viability (UISO cells (VN-MCC); Log (M) -5.33646) was 29.1%. The Percent viability (UISO cells (VN-MCC); Log (M) -5.81358) was 58.8%, the Percent viability (UISO cells (VN-MCC); Log (M) -6.2907) was 69.6% and the Percent viability (UISO cells (VN-MCC); Log (M) -6.76782) was 70.0%. For the same compound, the Percent viability (UISO cells (VN-MCC); Log (M) -7.24494) was 74.4%, the Percent viability (UISO cells (VN-MCC); Log (M) -7.72207) was 84.6% and the Percent viability (UISO cells (VN-MCC); Log (M) -8.19919) was 94.4%. The Percent viability (UISO cells (VN-MCC); Log (M) -8.67631) was 100.2%, the Percent viability (UISO cells (VN-MCC); Log (M) -9.15343) was 102.6% and the Percent viability (UISO cells (VN-MCC); Log (M) -9.63055) was 98.1%. The Percent viability (UISO cells (VN-MCC); Log (M) -10.1077) was 97.1%, the “Area under the dose-response curve (AUC) UISO Replicate 1” value (UISO cells (VN-MCC); follow-up screen, replicate 1) was 350.8 and the “Area under the dose-response curve (AUC) UISO Replicate 2” value (UISO cells (VN-MCC); follow-up screen, replicate 2) was 389.2. The “Area under the dose-response curve (AUC) UISO Replicate 3” value (UISO cells (VN-MCC); follow-up screen, replicate 3) was 355.0, the “potency in VP-MCC cell lines versus other human cancer cell lines (GDSC)” value (GDSC cancer cell lines) was “higher in VP-MCC cell lines than in hundreds of other human cancer cell lines” and the Percent viability (MCC13 cells (VN-MCC); Log (M) -5.33646) was 14.5%. It also gave a Percent viability (MCC13 cells (VN-MCC); Log (M) -5.81358) of 69.4%, a Percent viability (MCC13 cells (VN-MCC); Log (M) -6.2907) of 72.9% and a Percent viability (MCC13 cells (VN-MCC); Log (M) -6.76782) of 89.8%. The Percent viability (MCC13 cells (VN-MCC); Log (M) -7.24494) was 103.0%, the Percent viability (MCC13 cells (VN-MCC); Log (M) -7.72207) was 85.9% and the Percent viability (MCC13 cells (VN-MCC); Log (M) -8.19919) was 106.1%. It also gave a Percent viability (MCC13 cells (VN-MCC); Log (M) -8.67631) of 96.2%, a Percent viability (MCC13 cells (VN-MCC); Log (M) -9.15343) of 118.3% and a Percent viability (MCC13 cells (VN-MCC); Log (M) -9.63055) of 100.0%. For the same compound, the Percent viability (MCC13 cells (VN-MCC); Log (M) -10.1077) was 108.5%, the “Area under the dose-response curve (AUC) MCC13 Replicate 1” value (MCC13 cells (VN-MCC); follow-up screen, MCC13, replicate 1) was 420.2 and the “Area under the dose-response curve (AUC) MCC13 Replicate 2” value (MCC13 cells (VN-MCC); follow-up screen, MCC13, replicate 2) was 430.9. The “Area under the dose-response curve (AUC) MCC13 Replicate 3” value (MCC13 cells (VN-MCC); follow-up screen, MCC13, replicate 3) was 459.4, the “VP-MCC viability (in words)” value [1] was “consistently and potently reduced VP-MCC viability” and the Percent viability (WAGA cells (VP-MCC); Log (M) -5.33646) was 23.8%. The Percent viability (WAGA cells (VP-MCC); Log (M) -5.81358) was 31.7%, the Percent viability (WAGA cells (VP-MCC); Log (M) -6.2907) was 25.7% and the Percent viability (WAGA cells (VP-MCC); Log (M) -6.76782) was 41.2%. It also gave a Percent viability (WAGA cells (VP-MCC); Log (M) -7.24494) of 47.8%, a Percent viability (WAGA cells (VP-MCC); Log (M) -8.19919) of 107.2% and a Percent viability (WAGA cells (VP-MCC); Log (M) -8.67631) of 105.4%. The Percent viability (WAGA cells (VP-MCC); Log (M) -9.15343) was 101.2%, the Percent viability (WAGA cells (VP-MCC); Log (M) -9.63055) was 100.0% and the Percent viability (WAGA cells (VP-MCC); Log (M) -10.1077) was 100.0%. For the same compound, the “Area under the dose-response curve (AUC) WAGA Replicate 1” value (WAGA cells (VP-MCC); follow-up screen, replicate 1) was 353.1, the “Area under the dose-response curve (AUC) WAGA Replicate 2” value (WAGA cells (VP-MCC); follow-up screen, replicate 2) was 343.3 and the “Area under the dose-response curve (AUC) WAGA Replicate 3” value (WAGA cells (VP-MCC); follow-up screen, replicate 3) was 330.6. For the same compound, the Percent viability (MKL-1 cells (VP-MCC); Log (M) -5.33646) was 35.7%, the Percent viability (MKL-1 cells (VP-MCC); Log (M) -5.81358) was 29.2% and the Percent viability (MKL-1 cells (VP-MCC); Log (M) -6.2907) was 29.7%. For the same compound, the Percent viability (MKL-1 cells (VP-MCC); Log (M) -6.76782) was 36.8%, the Percent viability (MKL-1 cells (VP-MCC); Log (M) -7.24494) was 39.2% and the Percent viability (MKL-1 cells (VP-MCC); Log (M) -7.72207) was 37.5%. The Percent viability (MKL-1 cells (VP-MCC); Log (M) -8.19919) was 101.6%, the Percent viability (MKL-1 cells (VP-MCC); Log (M) -8.67631) was 103.8% and the Percent viability (MKL-1 cells (VP-MCC); Log (M) -9.15343) was 98.2%. For the same compound, the Percent viability (MKL-1 cells (VP-MCC); Log (M) -9.63055) was 98.1%, the Percent viability (MKL-1 cells (VP-MCC); Log (M) -10.1077) was 100.0% and the “Area under the dose-response curve (AUC) MKL-1 Replicate 1” value (MKL-1 cells (VP-MCC); follow-up screen, MKL-1, replicate 1) was 300.3. For the same compound, the “Area under the dose-response curve (AUC) MKL-1 Replicate 2” value (MKL-1 cells (VP-MCC); follow-up screen, MKL-1, replicate 2) was 306.3, the “Area under the dose-response curve (AUC) MKL-1 Replicate 3” value (MKL-1 cells (VP-MCC); follow-up screen, MKL-1, replicate 3) was 312.1 and the Percent viability (MCC26 cells (VN-MCC); Log (M) -5.33646) was 26.6%. For the same compound, the Percent viability (MCC26 cells (VN-MCC); Log (M) -5.81358) was 59.4%, the Percent viability (MCC26 cells (VN-MCC); Log (M) -6.2907) was 79.7% and the Percent viability (MCC26 cells (VN-MCC); Log (M) -6.76782) was 87.3%. For the same compound, the Percent viability (MCC26 cells (VN-MCC); Log (M) -7.24494) was 90.3%, the Percent viability (MCC26 cells (VN-MCC); Log (M) -7.72207) was 87.4% and the Percent viability (MCC26 cells (VN-MCC); Log (M) -8.19919) was 90.8%. It also gave a Percent viability (MCC26 cells (VN-MCC); Log (M) -8.67631) of 96.9%, a Percent viability (MCC26 cells (VN-MCC); Log (M) -9.15343) of 92.6% and a Percent viability (MCC26 cells (VN-MCC); Log (M) -9.63055) of 87.8%. The Percent viability (MCC26 cells (VN-MCC); Log (M) -10.1077) was 88.7%, the “Area under the dose-response curve (AUC) MCC26 Replicate 1” value (MCC26 cells (VN-MCC); follow-up screen, MCC26, replicate 1) was 399.1 and the “Area under the dose-response curve (AUC) MCC26 Replicate 2” value (MCC26 cells (VN-MCC); follow-up screen, MCC26, replicate 2) was 396.0. For the same compound, the “Area under the dose-response curve (AUC) MCC26 Replicate 3” value (MCC26 cells (VN-MCC); follow-up screen, MCC26, replicate 3) was 410.6.
